The values that follow are results of earlier work, collected in patent US9849088B2, “Depot formulations of a hydrophobic active ingredient and methods for preparation thereof” (PAINREFORM LTD., priority 2012, dated 2017).

The conditions of the data set: comparison value.

As to `CCCN1CCCC[C@H]1C(=O)Nc1c(C)cccc1C` [ropivacaine], the Toxic threshold (plasma) was 0.6 µg/mL.
